Data as given in ChEMBL document CHEMBL3822454, “On the vasoprotective mechanisms underlying novel β-phosphorylated nitrones: Focus on free radical characterization, scavenging and NO-donation in a biological model of oxidative stress” (Eur J Med Chem, 2016).
Calls of active or inactive are those of the source. The rule behind the calls is not given here.

Columns and labels:
Aorta [1] = assay: Potentiation of SNP-induced vasorelaxant activity in Sprague-Dawley rat endothelium-intact aortic rings assessed as reduction in L-phenylephrine hydrochloride-induced contraction at 200 uM relative to SNP; format: functional
[2] = Induction of nitric oxide release in water using Fe2+-MGD2 as nitric oxide trap at pH 6.56 measured 70 mins post UV-photolysis in dark condition by EPR spectroscopy; format: physicochemical; settings: buffer, pH 6.56, 70 min
Aorta [3] = assay: Toxicity in Sprague-Dawley rat endothelium-intact aortic rings at 15 mM measured after 20 mins; settings: 15000 µM
[4] = Antioxidant activity assessed as DPPH scavenging activity measured after 3 mins by spectrophotometric method; format: physicochemical
[5] = Antioxidant activity assessed as AAPH free radical scavenging activity measured as trolox equivalent by TRAP assay; format: physicochemical
[6] = Antioxidant activity assessed as inhibition of […]-xanthine oxidase system-mediated superoxide formation measured over 7 mins by lucigenin-based chemiluminescence analysis; format: physicochemical
[7] = target: Xanthine dehydrogenase/oxidase (Homo sapiens, UniProt P47989); assay: Inhibition of xanthine oxidase (unknown origin) using xanthine as substrate assessed as inhibition of uric acid formation at 1 to 100 uM after 30 mins by spectrophotometric method; settings: 0.5 h
Xanthine dehydrogenase/oxidase, sequence (P47989 whole entry): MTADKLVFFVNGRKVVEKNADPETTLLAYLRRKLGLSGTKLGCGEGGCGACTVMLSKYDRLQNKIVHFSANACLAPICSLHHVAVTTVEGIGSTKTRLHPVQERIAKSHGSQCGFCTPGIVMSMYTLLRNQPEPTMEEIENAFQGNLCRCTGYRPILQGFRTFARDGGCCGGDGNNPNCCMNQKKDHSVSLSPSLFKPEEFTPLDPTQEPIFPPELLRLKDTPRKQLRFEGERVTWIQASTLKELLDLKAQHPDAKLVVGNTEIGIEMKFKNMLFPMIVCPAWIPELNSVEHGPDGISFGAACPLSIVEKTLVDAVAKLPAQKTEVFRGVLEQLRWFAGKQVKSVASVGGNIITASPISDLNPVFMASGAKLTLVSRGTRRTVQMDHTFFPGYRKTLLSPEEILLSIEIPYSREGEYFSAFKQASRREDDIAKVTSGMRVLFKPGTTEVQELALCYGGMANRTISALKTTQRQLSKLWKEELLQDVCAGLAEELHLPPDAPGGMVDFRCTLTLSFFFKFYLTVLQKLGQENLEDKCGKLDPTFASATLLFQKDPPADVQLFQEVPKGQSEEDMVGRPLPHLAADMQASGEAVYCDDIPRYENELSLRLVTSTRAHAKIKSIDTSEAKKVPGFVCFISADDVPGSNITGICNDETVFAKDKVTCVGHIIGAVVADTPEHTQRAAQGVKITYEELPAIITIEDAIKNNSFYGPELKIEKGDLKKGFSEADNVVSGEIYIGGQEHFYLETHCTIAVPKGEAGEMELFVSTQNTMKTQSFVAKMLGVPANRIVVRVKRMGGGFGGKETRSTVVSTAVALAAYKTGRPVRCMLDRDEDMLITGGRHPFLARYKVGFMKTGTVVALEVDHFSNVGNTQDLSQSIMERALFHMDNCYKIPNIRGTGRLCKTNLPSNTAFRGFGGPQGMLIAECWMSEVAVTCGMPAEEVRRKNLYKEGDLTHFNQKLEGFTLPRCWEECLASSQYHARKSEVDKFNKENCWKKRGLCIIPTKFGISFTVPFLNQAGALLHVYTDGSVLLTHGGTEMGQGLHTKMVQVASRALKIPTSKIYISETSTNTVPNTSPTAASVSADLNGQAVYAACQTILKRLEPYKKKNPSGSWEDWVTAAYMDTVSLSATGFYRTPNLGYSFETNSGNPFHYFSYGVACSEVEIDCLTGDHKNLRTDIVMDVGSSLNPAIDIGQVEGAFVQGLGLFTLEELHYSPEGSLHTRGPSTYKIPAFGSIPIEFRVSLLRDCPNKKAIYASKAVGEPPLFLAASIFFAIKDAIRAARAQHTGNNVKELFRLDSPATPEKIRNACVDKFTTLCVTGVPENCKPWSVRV

A549 [8] = assay: Cytotoxicity against human A549 cells assessed as reduction in cell viability measured after 48 hrs by FMCA assay; format: cell-based; settings: A549, 48 h
A549 [9] = assay: Cytotoxicity against human A549 cells assessed as reduction in cell viability measured after 48 hrs by luminescence-based ATP assay; settings: A549, 48 h
A549 [10] = assay: Cytotoxicity against human A549 cells assessed as reduction in cell viability measured after 48 hrs by MTT assay; format: cell-based; settings: A549, 48 h
[11] = Cytotoxicity against BAEC assessed as reduction in cell viability measured after 24 hrs by MTT assay; design: species or system Bos taurus; settings: cattle
Aorta [12] = assay: Protection against NADPH-induced superoxide-mediated tissue damage in Sprague-Dawley rat endothelium-intact aortic rings assessed as inhibition of protein carbonyl formation at 200 uM pre-incubated for 30 mins in presence of DTC prior to NADPH addition measured after 60 mins using 7-hydrazino-4-nitrobenzo-2,1,3-oxadiazole by fluorimetric analysis; format: functional
[13] = Cytotoxicity against BAECs assessed as decrease in total intracellular LDH content at 15 mM measured after 3 hrs by LDH assay relative to vehicle control; format: cell-based, Bos taurus; design: scale not given: the % may be the effect or the level left; settings: cattle, baec, 15000 µM
Aorta [14] = assay: (§1) Vasoprotective activity against oxidative stress-induced impairment of ACh-stimulated vasorelaxation in Sprague-Dawley rat endothelium-intact aortic rings assessed as reduction in L-phenylephrine hydrochloride-induced contraction preincubated for 10 to 20 mins in presence of xanthine-xanthine oxidase system prior to L-phenylephrine hydrochloride addition; format: functional
Aorta [15] = assay: as §1, with “system at 200 uM” for “system”, “addition relative to ACh” for “addition”; format: functional
Aorta [16] = assay: (§2) Protection against NADPH-induced superoxide-mediated tissue damage in Sprague-Dawley rat endothelium-intact aortic rings assessed as decomposition of methyl radical adduct preincubated for 30 mins at 200 uM in presence of DTC prior to NADPH addition after 60 mins followed by renewal of media with NADPH-compound mixture measured after 4 days by EPR spectroscopy relative to control; format: functional
Aorta [17] = assay: Protection against superoxide-mediated tissue damage in Sprague-Dawley rat endothelium-intact aortic rings assessed as methyl radical adduct formation preincubated for 30 mins at 200 uM in presence of DTC measured after 4 days by EPR spectroscopy; format: functional
[18] = Cytotoxicity against BAEC assessed as decrease in total intracellular LDH content at 15 mM measured after 1 hr by LDH assay relative to vehicle-treated control; format: cell-based, Bos taurus; design: scale not given: the % may be the effect or the level left; settings: cattle, 15000 µM
Aorta [19] = assay: as §2, with “as” for “as decomposition of”, “formation pre-incubated” for “preincubated”, “addition measured” for “addition”, “20 mins in presence of DPI” for “4 days”, “spectroscopy” for “spectroscopy relative to control”; format: functional
A549 [20] = assay: Cytotoxicity against human A549 cells assessed as reduction in cell viability measured after 24 hrs by MTT assay; format: cell-based; settings: a549, 24 h
[21] = Induction of nitric oxide release in water using Fe2+-MGD2 as nitric oxide trap at pH 6.56 incubated in ambient light for 4.5 hrs by EPR spectroscopy; format: physicochemical; settings: buffer, pH 6.56, 4.5 h
[22] = Half life of the compound in phosphate buffer at pH 6 by UV-illumination; format: ADME
[23] = Cytotoxicity against BAECs assessed as reduction in cell viability measured after 24 hrs by neutral red assay; settings: Bos taurus, BAEC

Activity [2] | EC50 [4] | Activity [5] | IC50 [6] | inhibition (INH) [7] | EC50 (Aorta [14]) | SMILES | Rmax (Aorta [1]) | Activity (Aorta [3]) | IC50 (A549 [8]) | IC50 (A549 [9]) | IC50 (A549 [10]) | IC10 [11] | inhibition (Aorta [12]) | Activity [13] | Rmax (Aorta [15]) | Activity (Aorta [16]) | IC10 (A549 [20]) | further results
Active | > 1000 µM | 0.02 equiv | 4.2 µM | Not Active | – | CCOP(=O)(OCC)C(C)(C)/[N+]([O-])=C/c1ccccc1C(F)(F)F | 104% | Non-toxic | 2200 µM | 2700 µM | 4200 µM | 400 µM | – | – | – | – | – | –
Active | > 1000 µM | 0.02 equiv | 350 µM | Not Active | – | CCOP(=O)(OCC)C(C)(C)/[N+]([O-])=C/c1c(C)cccc1C | 105% | Non-toxic | 4700 µM | 5300 µM | 4400 µM | 500 µM | Active | – | – | – | – | –
– | 190 µM | 1.44 equiv | 72.1 µM | Not Active | 0.0676 µM | CCOP(=O)(OCC)C(C)(C)/[N+]([O-])=C/c1cc(OC)c(O)c(OC)c1 | 101% | Non-toxic | 12000 µM | 14800 µM | 15300 µM | 2600 µM | Active | 8% | 77% | < 5% | 6100 µM | Activity (Aorta [17]): inactive; Activity [18]: < 10%; Activity (Aorta [19]): inactive
Active | > 1000 µM | 0.02 equiv | 30 µM | Not Active | – | CCOP(=O)(OCC)C(C)(C)/[N+]([O-])=C/c1ccccc1[N+](=O)[O-] | 100% | Non-toxic | 2200 µM | 1400 µM | 1300 µM | < 100 µM | – | 54% | – | – | – | Activity [18]: < 10%
– | – | – | – | – | – | CC(C)(C)N([O])C(O)c1ccccc1 (stereo not drawn) | – | – | – | – | – | – | – | – | – | – | – | half-life [22]: 1.5 min
Not Active | > 1000 µM | 0.02 equiv | > 4000 µM | – | 0.174 µM | CC(C)(C)/[N+]([O-])=C/c1ccccc1 | 98% | – | 11400 µM | 9600 µM | 10800 µM | 2400 µM | inactive | 10% | 62% | 25% | 5100 µM | IC50 [23]: 9400 µM

SMILES | Activity [2] | EC50 [4] | Activity [5] | IC50 [6] | inhibition (INH) [7] | EC50 (Aorta [14]) | Rmax (Aorta [1]) | Activity (Aorta [3]) | IC50 (A549 [8]) | IC50 (A549 [9]) | IC50 (A549 [10]) | IC10 [11] | inhibition (Aorta [12]) | Activity [13] | Rmax (Aorta [15]) | Activity (Aorta [16]) | IC10 (A549 [20]) | further results
CCOP(=O)(OCC)C(C)(C)/[N+]([O-])=C/c1ccc(Cl)cc1 | Active | – | – | – | – | – | – | – | – | – | – | – | – | – | – | – | – | Activity [21]: Active
CCOP(=O)(OCC)C(C)(C)/[N+]([O-])=C/c1ccccc1 | – | > 1000 µM | 0.02 equiv | 375 µM | – | 0.148 µM | 100% | – | 12600 µM | 10800 µM | 12400 µM | 1100 µM | Active | 19% | 75% | 30% | 4900 µM | –
